One compound from US5804583A, “Pyrimidinone derivatives fused to nitrogen heterocycles having a II antagonistic activity” (Istituto Luso Farmaco D'Italia, priority 1993, dated 1998) can be followed below.

Experiment [1] has as its target A II receptor. As to the kind of experiment: receptor binding test: displacement of 125I-Sar1-Ile8-AT II or [3H] AT II in the rat adrenal cortex. From the text: (§1) The compounds described in the present invention act as antagonists at the A II receptor level. For the characterization and the evaluation of the effectiveness of the compounds of the invention, in vitro tests (such as the inhibition of the A II-induced contraction in the rabbit aorta and the displacement of ^125 I-Sar^1 -Ile^8 -AT II or [^3 H] AT II in the rat adrenal cortex) and an in vivo test (the inhibition of the A II-induced pressory response in the ganglio-blocked normotensive rat) were selected.
(In general: Loss of bound radioactivity is the signal in a displacement assay; it reports binding, not function.)

Experiment [2] deals with A II receptor. As to the kind of experiment: inhibition of the A II-induced contraction in the rabbit aorta.
Text: as §1

The term Ki denotes a dissociation constant, usually derived from enzyme kinetics or from competition with a known ligand. At A II receptor [1], `CCCCc1c(Cc2ccc(-c3ccccc3-c3nnn[nH]3)cc2)c(=O)nc2n1C(C)C(=O)N2` (centres unmarked) [ex.6, 5-butyl-3-methyl-6-[[2'-(1H-tetrazol-5-yl)biphenyl-4-yl]methyl]imidazo[1,2-a]pyrimidin-2,7-dione] registered a Ki of 5 nM. The PKB in the experiment on A II receptor [2] amounted to 10.4.
